Data taken from ChEMBL document CHEMBL3885861, “Open TG-GATES”.

Organism: Rattus norvegicus
Test: Open TG-GATES - Regimen: Daily Repeat
Type: toxicity, organism-based, Sprague-Dawley
Parameters: regimen Daily Repeat, gender Male, age 6 weeks
Details: in vivo, po, 1000 mg/kg, route gavage, dose level High; for APTT / Bas / Eos / Fbg / Hb / Ht / Lym / MCH / MCHC / MCV / Mono / Neu / PT / Plat / RBC / Ret / WBC: tissue Blood; for KIDNEY_L / KIDNEY_R / KIDNEY_TOTAL: tissue Kidney; for LIVER: tissue Liver; for A/G / ALP / ALT / AST / BUN / CRE / Ca / Cl / DBIL / GLC / IP / K / LDH / Na / PL / RALB / TBIL / TC / TG / TP / gamma-GTP: tissue Plasma

With CNC(=C[N+](=O)[O-])NCCSCc1ccc(CN(C)C)o1 [RANITIDINE] the TERMINAL_BW (72 h, time 3 day) was 237.1 g, the APTT (72 h, time 3 day) was 20.1 s and the Bas (72 h, time 3 day) was 0%. The Eos (72 h, time 3 day) was 1%, the Fbg (72 h, time 3 day) was 231.6 mg/dL and the Hb (72 h, time 3 day) was 13.6 g/dL. For the same compound, the Ht (72 h, time 3 day) was 39.8%, the Lym (72 h, time 3 day) was 78.4% and the MCH (72 h, time 3 day) was 21.5 pg. It also gave an MCHC (72 h, time 3 day) of 34.1%, an MCV (72 h, time 3 day) of 63.1 fL and a Mono (72 h, time 3 day) of 3%. It also gave a Neu (72 h, time 3 day) of 16%, a PT (72 h, time 3 day) of 12 s and a Plat (72 h, time 3 day) of 117.3 x10_4/uL. For the same compound, the RBC (72 h, time 3 day) was 631.4 x10_4/ul, the Ret (72 h, time 3 day) was 4.8% and the WBC (72 h, time 3 day) was 85 x10_2/uL. The KIDNEY_L (72 h, time 3 day) was 1 g, the KIDNEY_R (72 h, time 3 day) was 1 g and the KIDNEY_TOTAL (72 h, time 3 day) was 2 g. The LIVER (72 h, time 3 day) was 12 g, the A/G (72 h, time 3 day) was 1.6 and the ALP (72 h, time 3 day) was 907.8 IU/L. It also gave an ALT (72 h, time 3 day) of 41.2 IU/L, an AST (72 h, time 3 day) of 69.4 IU/L and a BUN (72 h, time 3 day) of 14.8 mg/dL. It also gave a CRE (72 h, time 3 day) of 0.4 mg/dL, a Ca (72 h, time 3 day) of 11 mg/dL and a Cl (72 h, time 3 day) of 103.6 meq/L. It also gave a DBIL (72 h, time 3 day) of 0.098 mg/dL, a GLC (72 h, time 3 day) of 198.4 mg/dL and an IP (72 h, time 3 day) of 8 mg/dL. The K (72 h, time 3 day) was 4 meq/L, the LDH (72 h, time 3 day) was 216.6 IU/L and the Na (72 h, time 3 day) was 140.6 meq/L. For the same compound, the PL (72 h, time 3 day) was 148.4 mg/dL, the RALB (72 h, time 3 day) was 3.4 g/dL and the TBIL (72 h, time 3 day) was 0.2 mg/dL. It also gave a TC (72 h, time 3 day) of 80 mg/dL, a TG (72 h, time 3 day) of 107.4 mg/dL and a TP (72 h, time 3 day) of 5.6 g/dL. For the same compound, the gamma-GTP (72 h, time 3 day) was 1.4 IU/L, the TERMINAL_BW ([…], time 7 day) was 264.9 g and the TERMINAL_BW ([…], time 14 day) was 314.9 g. The TERMINAL_BW ([…], time 28 day) was 379.9 g, the APTT ([…], time 7 day) was 19.6 s and the Bas ([…], time 7 day) was 0%. For the same compound, the Eos ([…], time 7 day) was 0.8%, the Fbg ([…], time 7 day) was 216.8 mg/dL and the Hb ([…], time 7 day) was 13.9 g/dL. The Ht ([…], time 7 day) was 39.1%, the Lym ([…], time 7 day) was 82.2% and the MCH ([…], time 7 day) was 21.7 pg. The MCHC ([…], time 7 day) was 35.5%, the MCV ([…], time 7 day) was 61.2 fL and the Mono ([…], time 7 day) was 1.6%. It also gave a Neu ([…], time 7 day) of 12.8%, a PT ([…], time 7 day) of 12.5 s and a Plat ([…], time 7 day) of 121.8 x10_4/uL. It also gave an RBC ([…], time 7 day) of 639.4 x10_4/ul, a Ret ([…], time 7 day) of 5% and a WBC ([…], time 7 day) of 99 x10_2/uL. The APTT ([…], time 14 day) was 18.9 s, the Bas ([…], time 14 day) was 0% and the Eos ([…], time 14 day) was 1%. For the same compound, the Fbg ([…], time 14 day) was 234.2 mg/dL, the Hb ([…], time 14 day) was 14.5 g/dL and the Ht ([…], time 14 day) was 40.3%. It also gave a Lym ([…], time 14 day) of 77.8%, an MCH ([…], time 14 day) of 21.2 pg and an MCHC ([…], time 14 day) of 36.1%. For the same compound, the MCV ([…], time 14 day) was 58.7 fL, the Mono ([…], time 14 day) was 2.4% and the Neu ([…], time 14 day) was 18%. For the same compound, the PT ([…], time 14 day) was 12.1 s, the Plat ([…], time 14 day) was 118.7 x10_4/uL and the RBC ([…], time 14 day) was 686 x10_4/ul. The Ret ([…], time 14 day) was 4.3%, the WBC ([…], time 14 day) was 87.7 x10_2/uL and the APTT ([…], time 28 day) was 19.8 s. The Bas ([…], time 28 day) was 0%, the Eos ([…], time 28 day) was 1.2% and the Fbg ([…], time 28 day) was 234.2 mg/dL. For the same compound, the Hb ([…], time 28 day) was 15.5 g/dL, the Ht ([…], time 28 day) was 43.3% and the Lym ([…], time 28 day) was 77.2%. The MCH ([…], time 28 day) was 20.1 pg, the MCHC ([…], time 28 day) was 35.9% and the MCV ([…], time 28 day) was 56.2 fL. For the same compound, the Mono ([…], time 28 day) was 1.8%, the Neu ([…], time 28 day) was 18.6% and the PT ([…], time 28 day) was 12.2 s. For the same compound, the Plat ([…], time 28 day) was 113 x10_4/uL, the RBC ([…], time 28 day) was 769.8 x10_4/ul and the Ret ([…], time 28 day) was 2.2%. For the same compound, the WBC ([…], time 28 day) was 104.7 x10_2/uL, the KIDNEY_L ([…], time 7 day) was 1.1 g and the KIDNEY_R ([…], time 7 day) was 1.2 g. It also gave a KIDNEY_TOTAL ([…], time 7 day) of 2.3 g, a KIDNEY_L ([…], time 14 day) of 1.2 g and a KIDNEY_R ([…], time 14 day) of 1.2 g. The KIDNEY_TOTAL ([…], time 14 day) was 2.4 g, the KIDNEY_L ([…], time 28 day) was 1.4 g and the KIDNEY_R ([…], time 28 day) was 1.4 g. The KIDNEY_TOTAL ([…], time 28 day) was 2.8 g, the LIVER ([…], time 7 day) was 12.3 g and the LIVER ([…], time 14 day) was 14.2 g. The LIVER ([…], time 28 day) was 15.4 g, the A/G ([…], time 7 day) was 1.5 and the ALP ([…], time 7 day) was 852.4 IU/L. For the same compound, the ALT ([…], time 7 day) was 37.2 IU/L, the AST ([…], time 7 day) was 65.4 IU/L and the BUN ([…], time 7 day) was 16.8 mg/dL. The CRE ([…], time 7 day) was 0.4 mg/dL, the Ca ([…], time 7 day) was 10.7 mg/dL and the Cl ([…], time 7 day) was 103.6 meq/L. The DBIL ([…], time 7 day) was 0.088 mg/dL, the GLC ([…], time 7 day) was 224.4 mg/dL and the IP ([…], time 7 day) was 7.8 mg/dL. The K ([…], time 7 day) was 3.7 meq/L, the LDH ([…], time 7 day) was 169.6 IU/L and the Na ([…], time 7 day) was 140.6 meq/L. It also gave a PL ([…], time 7 day) of 137.2 mg/dL, an RALB ([…], time 7 day) of 3.3 g/dL and a TBIL ([…], time 7 day) of 0.1 mg/dL. For the same compound, the TC ([…], time 7 day) was 76.8 mg/dL, the TG ([…], time 7 day) was 82.4 mg/dL and the TP ([…], time 7 day) was 5.5 g/dL. The gamma-GTP ([…], time 7 day) was 0.8 IU/L, the A/G ([…], time 14 day) was 1.4 and the ALP ([…], time 14 day) was 785 IU/L. For the same compound, the ALT ([…], time 14 day) was 37.2 IU/L, the AST ([…], time 14 day) was 62.8 IU/L and the BUN ([…], time 14 day) was 17.6 mg/dL. For the same compound, the CRE ([…], time 14 day) was 0.5 mg/dL, the Ca ([…], time 14 day) was 10.5 mg/dL and the Cl ([…], time 14 day) was 103 meq/L. It also gave a DBIL ([…], time 14 day) of 0.08 mg/dL, a GLC ([…], time 14 day) of 193 mg/dL and an IP ([…], time 14 day) of 7.4 mg/dL. The K ([…], time 14 day) was 4.2 meq/L, the LDH ([…], time 14 day) was 205.8 IU/L and the Na ([…], time 14 day) was 141.8 meq/L. It also gave a PL ([…], time 14 day) of 137.8 mg/dL, an RALB ([…], time 14 day) of 3.5 g/dL and a TBIL ([…], time 14 day) of 0.1 mg/dL. For the same compound, the TC ([…], time 14 day) was 66.4 mg/dL, the TG ([…], time 14 day) was 104 mg/dL and the TP ([…], time 14 day) was 5.8 g/dL. The gamma-GTP ([…], time 14 day) was 1.2 IU/L, the A/G ([…], time 28 day) was 1.3 and the ALP ([…], time 28 day) was 562.8 IU/L. The ALT ([…], time 28 day) was 38.8 IU/L, the AST ([…], time 28 day) was 61 IU/L and the BUN ([…], time 28 day) was 17.2 mg/dL. For the same compound, the CRE ([…], time 28 day) was 0.5 mg/dL, the Ca ([…], time 28 day) was 10.5 mg/dL and the Cl ([…], time 28 day) was 102.2 meq/L. It also gave a DBIL ([…], time 28 day) of 0.094 mg/dL, a GLC ([…], time 28 day) of 198.6 mg/dL and an IP ([…], time 28 day) of 7.2 mg/dL. For the same compound, the K ([…], time 28 day) was 3.8 meq/L, the LDH ([…], time 28 day) was 114.2 IU/L and the Na ([…], time 28 day) was 141.6 meq/L. The PL ([…], time 28 day) was 142.6 mg/dL, the RALB ([…], time 28 day) was 3.5 g/dL and the TBIL ([…], time 28 day) was 0.2 mg/dL. For the same compound, the TC ([…], time 28 day) was 70.4 mg/dL, the TG ([…], time 28 day) was 96 mg/dL and the TP ([…], time 28 day) was 6.1 g/dL. It also gave a gamma-GTP ([…], time 28 day) of 0.8 IU/L.
